Experimental data: patent US4327097A, “Novel penicillins” (Toyama Chemical Co., Ltd., priority 1974, dated 1982)
Converted amounts (≈) assume the structure as drawn.

Legend:
Format in all cases: cell-based
Klebsiella pneumoniae [1] = experiment: MIC against clinical isolates; conditions: unit assumed; for MIC Klebsiella pneumoniae GN 917 / MIC Klebsiella pneumoniae GN 4081: Table 6-4, clinical isolate
Proteus rettgeri = experiment: MIC against clinical isolates; conditions: unit assumed
Proteus mirabilis = experiment: MIC against clinical isolates; conditions: Table 6-5, clinical isolate; unit assumed
Staphylococcus aureus = experiment: MIC against clinical isolates; conditions: unit assumed
Pseudomonas aeruginosa = experiment: MIC against clinical isolates; conditions: unit assumed; for MIC Pseudomonas aeruginosa S-1: Table 6-4, clinical isolate
Escherichia coli = experiment: MIC against clinical isolates; conditions: unit assumed
[2] = test system: Pseudomonas aeruginosa I.F.O.; experiment: MIC, plate method, standard strains; conditions: Table 4, standard strain; unit assumed
Procedure, shortened: (§1)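 Minimum inhibitory concentrations are determined by agar plate dilution using Heart infusion agar (pH 7.4). Each plate receives an inoculum of 10^4 cells.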

Escherichia coli NIHJ = experiment: MIC, plate method, standard strains; conditions: unit assumed; for MIC Escherichia coli NIHJ: Table 4, standard strain
Procedure, shortened: as §1

Proteus vulgaris 3027 = experiment: MIC, plate method, standard strains; conditions: unit assumed
Procedure, shortened: as §1

[3] = test system: Staphylococcus aureus 209p; experiment: MIC, plate method, standard strains; conditions: unit assumed
Procedure, shortened: as §1

Klebsiella pneumoniae [4] = experiment: MIC, plate method, standard strains; conditions: unit assumed
Procedure, shortened: as §1

Proteus morganii = experiment: MIC against clinical isolates; conditions: Table 6-5, clinical isolate; unit assumed
Proteus vulgaris = experiment: MIC against clinical isolates; conditions: Table 6-5, clinical isolate; unit assumed
Shigella sonnei = experiment: MIC against clinical isolates; conditions: Table 5-5, clinical isolate; unit assumed
Protocol: (§2) The minimum inhibitory concentration (MIC) was determined by the plate method disclosed in "Chemotherapy" (Japan), Vol. 16, (1968), pages 98-99. The culture medium used was a Heart infusion agar (pH 7.4). The number of the cells per plate used in the inoculum was 10^4 (10^6 cells/ml).
(§3) MIC was determined in the same manner as in the preceding paragraph (1).

Shigella flexneri = experiment: MIC against clinical isolates; conditions: Table 5-5, clinical isolate; unit assumed
Protocol: as §2, §3

SMILES: CCN1CCN(C(=O)NC(C(=O)NC2C(=O)N3C(C(=O)O)=C(CSc4nncs4)CSC23)c2ccc(O)cc2)C(=O)C1=O (single isomer, unassigned) [Compound No. 79]
- MIC Klebsiella pneumoniae GN 917 (Klebsiella pneumoniae [1]): 0.78 µg/mL (≈ 1.2 µM)
- MIC Klebsiella pneumoniae GN 4081 (Klebsiella pneumoniae [1]): 12.5 µg/mL (≈ 19.3 µM)
- MIC Proteus rettgeri (Proteus rettgeri; Table 6-5, clinical isolate): 3.13 µg/mL (≈ 4.83 µM)
- MIC Proteus mirabilis (Proteus mirabilis): 1.56 µg/mL (≈ 2.41 µM)
- MIC Staphylococcus aureus F-1 (Staphylococcus aureus; Table 6-1, clinical isolate): 1.56 µg/mL (≈ 2.41 µM)
- MIC Staphylococcus aureus MS 8588 (Staphylococcus aureus; Table 6-1, clinical isolate): 3.13 µg/mL (≈ 4.83 µM)
- MIC Staphylococcus aureus MS 8596 (Staphylococcus aureus; Table 6-1, clinical isolate): 3.13 µg/mL (≈ 4.83 µM)
- MIC Staphylococcus aureus MS 8619 (Staphylococcus aureus; Table 6-1, clinical isolate): 1.56 µg/mL (≈ 2.41 µM)
- MIC Staphylococcus aureus MS 8684 (Staphylococcus aureus; Table 6-1, clinical isolate): 1.56 µg/mL (≈ 2.41 µM)
- MIC Pseudomonas aeruginosa GN4 (Pseudomonas aeruginosa; Table 6-3, clinical isolate): 12.5 µg/mL (≈ 19.3 µM)
- MIC Pseudomonas aeruginosa GN 82 (Pseudomonas aeruginosa; Table 6-3, clinical isolate): 12.5 µg/mL (≈ 19.3 µM)
- MIC Pseudomonas aeruginosa GN 221 (Pseudomonas aeruginosa; Table 6-3, clinical isolate): 6.25 µg/mL (≈ 9.65 µM)
- MIC Pseudomonas aeruginosa GN 376 (Pseudomonas aeruginosa; Table 6-3, clinical isolate): 6.25 µg/mL (≈ 9.65 µM)
- MIC Pseudomonas aeruginosa GN 1035 (Pseudomonas aeruginosa; Table 6-3, clinical isolate): 25 µg/mL (≈ 38.6 µM)
- MIC Pseudomonas aeruginosa GN 1091 (Pseudomonas aeruginosa; Table 6-3, clinical isolate): 12.5 µg/mL (≈ 19.3 µM)
- MIC Pseudomonas aeruginosa GN 2565 (Pseudomonas aeruginosa; Table 6-3, clinical isolate): 25 µg/mL (≈ 38.6 µM)
- MIC Pseudomonas aeruginosa S-1 (Pseudomonas aeruginosa): 25 µg/mL (≈ 38.6 µM)
- MIC Escherichia coli GN 3435 (Escherichia coli; Table 6-2, clinical isolate): 0.39 µg/mL (≈ 0.602 µM)
- MIC Escherichia coli GN 3452 (Escherichia coli; Table 6-2, clinical isolate): 0.39 µg/mL (≈ 0.602 µM)
- MIC Escherichia coli GN 3465 (Escherichia coli; Table 6-2, clinical isolate): 3.13 µg/mL (≈ 4.83 µM)
- MIC Escherichia coli K-2 (Escherichia coli; Table 6-2, clinical isolate): 1.56 µg/mL (≈ 2.41 µM)
- MIC Escherichia coli K-4 (Escherichia coli; Table 6-2, clinical isolate): 0.78 µg/mL (≈ 1.2 µM)
- MIC Pseudomonas aeruginosa I.F.O. [2]: 3.13 µg/mL (≈ 4.83 µM)
- MIC Escherichia coli NIHJ (Escherichia coli NIHJ): < 0.1 µg/mL
- MIC Proteus vulgaris 3027 (Proteus vulgaris 3027; Table 4, standard strain): 3.13 µg/mL (≈ 4.83 µM)
- MIC Staphylococcus aureus 209p ([3]; Table 4, standard strain): 1.57 µg/mL (≈ 2.42 µM)
- MIC Klebsiella pneumoniae (Klebsiella pneumoniae [4]; Table 4, standard strain): 0.79 µg/mL (≈ 1.22 µM)
- MIC Proteus morganii (Proteus morganii): 1.56 µg/mL (≈ 2.41 µM)
- MIC Proteus vulgaris (Proteus vulgaris): 0.39 µg/mL (≈ 0.602 µM)

SMILES: Cn1nnnc1SCC1=C(C(=O)O)N2C(=O)C(NC(=O)C(NC(=O)N3CCN(CCO)C(=O)C3=O)c3ccccc3)C2SC1 (single isomer, unassigned) [Compound No. 82]
- MIC Klebsiella pneumoniae GN 917 (Klebsiella pneumoniae [1]): 1.56 µg/mL (≈ 2.42 µM)
- MIC Klebsiella pneumoniae GN 4081 (Klebsiella pneumoniae [1]): 6.25 µg/mL (≈ 9.68 µM)
- MIC Proteus rettgeri (Proteus rettgeri; Table 6-5, clinical isolate): 6.25 µg/mL (≈ 9.68 µM)
- MIC Proteus mirabilis (Proteus mirabilis): 3.13 µg/mL (≈ 4.85 µM)
- MIC Staphylococcus aureus F-1 (Staphylococcus aureus; Table 6-1, clinical isolate): 3.13 µg/mL (≈ 4.85 µM)
- MIC Staphylococcus aureus MS 8588 (Staphylococcus aureus; Table 6-1, clinical isolate): 3.13 µg/mL (≈ 4.85 µM)
- MIC Staphylococcus aureus MS 8596 (Staphylococcus aureus; Table 6-1, clinical isolate): 3.13 µg/mL (≈ 4.85 µM)
- MIC Staphylococcus aureus MS 8619 (Staphylococcus aureus; Table 6-1, clinical isolate): 1.56 µg/mL (≈ 2.42 µM)
- MIC Staphylococcus aureus MS 8684 (Staphylococcus aureus; Table 6-1, clinical isolate): 1.56 µg/mL (≈ 2.42 µM)
- MIC Pseudomonas aeruginosa GN (Pseudomonas aeruginosa; Table 6-3, clinical isolate, strain number not given): 50 µg/mL (≈ 77.4 µM)
- MIC Pseudomonas aeruginosa GN4 (Pseudomonas aeruginosa; Table 6-3, clinical isolate): 50 µg/mL (≈ 77.4 µM)
- MIC Pseudomonas aeruginosa GN 82 (Pseudomonas aeruginosa; Table 6-3, clinical isolate): 50 µg/mL (≈ 77.4 µM)
- MIC Pseudomonas aeruginosa GN 221 (Pseudomonas aeruginosa; Table 6-3, clinical isolate): 25 µg/mL (≈ 38.7 µM)
- MIC Pseudomonas aeruginosa GN 376 (Pseudomonas aeruginosa; Table 6-3, clinical isolate): 25 µg/mL (≈ 38.7 µM)
- MIC Pseudomonas aeruginosa GN 1035 (Pseudomonas aeruginosa; Table 6-3, clinical isolate): 50 µg/mL (≈ 77.4 µM)
- MIC Pseudomonas aeruginosa GN 1091 (Pseudomonas aeruginosa; Table 6-3, clinical isolate): 50 µg/mL (≈ 77.4 µM)
- MIC Pseudomonas aeruginosa GN 2565 (Pseudomonas aeruginosa; Table 6-3, clinical isolate): 50 µg/mL (≈ 77.4 µM)
- MIC Pseudomonas aeruginosa S-1 (Pseudomonas aeruginosa): 100 µg/mL (≈ 155 µM)
- MIC Escherichia coli GN 3435 (Escherichia coli; Table 6-2, clinical isolate): 1.56 µg/mL (≈ 2.42 µM)
- MIC Escherichia coli GN 3452 (Escherichia coli; Table 6-2, clinical isolate): 1.56 µg/mL (≈ 2.42 µM)
- MIC Escherichia coli GN 3465 (Escherichia coli; Table 6-2, clinical isolate): 6.25 µg/mL (≈ 9.68 µM)
- MIC Escherichia coli K-2 (Escherichia coli; Table 6-2, clinical isolate): 6.25 µg/mL (≈ 9.68 µM)
- MIC Escherichia coli K-4 (Escherichia coli; Table 6-2, clinical isolate): 1.56 µg/mL (≈ 2.42 µM)
- MIC Pseudomonas aeruginosa I.F.O. [2]: 25 µg/mL (≈ 38.7 µM)
- MIC Escherichia coli NIHJ (Escherichia coli NIHJ): < 0.1 µg/mL
- MIC Proteus vulgaris 3027 (Proteus vulgaris 3027; Table 4, standard strain): 0.79 µg/mL (≈ 1.22 µM)
- MIC Staphylococcus aureus 209p ([3]; Table 4, standard strain): 1.57 µg/mL (≈ 2.43 µM)
- MIC Klebsiella pneumoniae (Klebsiella pneumoniae [4]; Table 4, standard strain): 0.79 µg/mL (≈ 1.22 µM)
- MIC Proteus morganii (Proteus morganii): 1.56 µg/mL (≈ 2.42 µM)
- MIC Proteus vulgaris (Proteus vulgaris): 0.78 µg/mL (≈ 1.21 µM)

SMILES: CCCCCCCCN1CCN(C(=O)N[C@@H](C(=O)N[C@@H]2C(=O)N3[C@@H]2SC(C)(C)[C@@H]3C(=O)O)c2ccccc2)C(=O)C1 [Compound 16]
- MIC Klebsiella pneumoniae GN 3850 (Klebsiella pneumoniae [1]; Table 5-4, clinical isolate): 3.13 µg/mL (≈ 5.33 µM)
- MIC Proteus rettgeri (Proteus rettgeri; Table 5-6, clinical isolate): 6.25 µg/mL (≈ 10.6 µM)
- MIC Staphylococcus aureus F-1 (Staphylococcus aureus; Table 5-1, clinical isolate): 6.25 µg/mL (≈ 10.6 µM)
- MIC Staphylococcus aureus F-4 (Staphylococcus aureus; Table 5-1, clinical isolate): 6.25 µg/mL (≈ 10.6 µM)
- MIC Staphylococcus aureus MS 8588 (Staphylococcus aureus; Table 5-1, clinical isolate): 3.13 µg/mL (≈ 5.33 µM)
- MIC Staphylococcus aureus MS 8596 (Staphylococcus aureus; Table 5-1, clinical isolate): 3.13 µg/mL (≈ 5.33 µM)
- MIC Staphylococcus aureus MS 8684 (Staphylococcus aureus; Table 5-1, clinical isolate): 3.13 µg/mL (≈ 5.33 µM)
- MIC Staphylococcus aureus MS 8713 (Staphylococcus aureus; Table 5-1, clinical isolate): 3.13 µg/mL (≈ 5.33 µM)
- MIC Pseudomonas aeruginosa GN 82 (Pseudomonas aeruginosa; Table 5-3, clinical isolate): 6.25 µg/mL (≈ 10.6 µM)
- MIC Pseudomonas aeruginosa GN 2987 (Pseudomonas aeruginosa; Table 5-3, clinical isolate): 3.13 µg/mL (≈ 5.33 µM)
- MIC Escherichia coli GN 3435 (Escherichia coli; Table 5-2, clinical isolate): 1.57 µg/mL (≈ 2.67 µM)
- MIC Escherichia coli GN 3452 (Escherichia coli; Table 5-2, clinical isolate): 1.57 µg/mL (≈ 2.67 µM)
- MIC Escherichia coli GN 3481 (Escherichia coli; Table 5-2, clinical isolate): 3.13 µg/mL (≈ 5.33 µM)
- MIC Escherichia coli K-1 (Escherichia coli; Table 5-2, clinical isolate): 1.57 µg/mL (≈ 2.67 µM)
- MIC Escherichia coli K-2 (Escherichia coli; Table 5-2, clinical isolate): 3.13 µg/mL (≈ 5.33 µM)
- MIC Escherichia coli K-4 (Escherichia coli; Table 5-2, clinical isolate): 3.13 µg/mL (≈ 5.33 µM)
- MIC Shigella sonnei JS 11232 (Shigella sonnei): 6.25 µg/mL (≈ 10.6 µM)
- MIC Shigella sonnei JS 11755 (Shigella sonnei): 1.57 µg/mL (≈ 2.67 µM)
- MIC Shigella flexneri JS 11215 (Shigella flexneri): 6.25 µg/mL (≈ 10.6 µM)
- MIC Shigella flexneri JS 11839 (Shigella flexneri): 0.79 µg/mL (≈ 1.34 µM)
- MIC Esche--richin coil NIHJ (Escherichia coli NIHJ; Table 3, standard strain): < 1.57 µg/mL
- MIC Proteus vulgaris 3027 (Proteus vulgaris 3027; Table 3, standard strain): < 1.57 µg/mL
- MIC Staphylococcus aureus 209p ([3]; Table 3, standard strain, Heart infusion agar pH 7.4): < 1.57 µg/mL
- MIC Klebsiella pneumoniae (Klebsiella pneumoniae [4]; Table 3, standard strain): 1.57 µg/mL (≈ 2.67 µM)
